Experimental data reported in US8574551B2, “Compositions useful for reducing nephrotoxicity and methods of use thereof” (Verrow Pharmaceuticals, Inc., priority 2005, dated 2013).

What was measured:
Format in all cases: in vivo, C57BL/6 mice
kidney [1] = assay: Doxorubicin induced nephrotoxicity model in mice; conditions: doxorubicin 10 mg/kg single iv dose; 72 hours
Experimental: Female C57BL/6 mice were injected intravenously with a single dose of (10 mg/kg) doxorubicin. The mice were sacrificed after 72 hours. The development of glumerular and tubulointerstitial injury after doxorubicin and doxorubicin+Captisol was evaluated by means of renal histology. Paraffin sections of […] were cut and stained with H&E and periodic acid Schiff (PAS). They were examined by light microscopy and scored in a blinded fashion. Thirty glomeruli and neighboring tubules were scored at superficial cortes (near the surface of the capsule). One hundred glomeruli and neighboring tubules were scored at the level of deep renal cortex and around the outer strips of the outer medulla.

kidney [2] = assay: Gentamicin induced nephrotoxicity in mice; conditions: 10 consecutive days
Experimental: These doses however, produce nephrotoxicity in humans. Therefore, nephroprotective effects of SBE-βCD in mildly renal compromised mice was evaluated. […] In order to produce mildly renal compromised mice, animals were injected with L-NAME (L arginine methyl ester) 10 mg/kg and Indomethacin 10 mg/kg, ip., 15-20 min before the first injection of gentamicin. Female C57BL/6 mice were administered bolus intravenous injections for ten consecutive days with a dose of 4.0 mg/kg gentamicin (N=4) or gentamicin 4.0 mg/kg+SBE-βCD 19.2 mg/kg (N=4), or gentamicin 4.0 mg/kg+SBE-βCD 38.4 mg/kg (N=4). Gentamicin to SBE-βCD molar ratios were 1:1 and 1:2 respectively. Animals were sacrificed after 48 hrs after the last injection. Renal pathology was assessed by evaluating H&E sections of the kidney under light microscope.
Paraffin sections of […] were cut and stained with H&E and periodic acid Schiff (PAS). They were examined by light microscopy and scored in a blinded fashion. Five arbitrary fields at 40× magnification in each sections was assessed for the below mentioned parameters and scored according to the criteria mentioned

kidney [3] = assay: Iohexyl induced nephrotoxicity in mildly renal compromised mice; conditions: iohexyl 1.5 g/kg iv once, alone, 24 hrs
Experimental: Iohexyl is nephrotoxic in humans and can produce acute renal failure in renally compromised patients. Therefore, the nephroprotective effects of sulfobutyl ethyl β cyclodextrin (SBE-βCD) in a contrast agent induced nephropathy model involving mildly renal compromised mice was evaluated. […] In order to produce mildly renal compromised mice, female C57BL/6 mice were injected with nitric oxide synthase inhibitor L-NAME (L arginine methyl ester) 10 mg/kg and prostaglandin synthesis inhibitor Indomethacin 10 mg/kg, ip., 15-20 min before injecting of iohexyl. The mice were administered a single bolus intravenous injections of iohexyl 1.5 g/kg (N=4) or iohexyl 1.5 g/kg+SBE-βCD 1.3 g/kg (N=4), or iohexyl 1.5 g/kg+SBE-βCD […] administered 30 minutes before, concurrently, and 30 min after iohexyl injection (N=4) (Table 7). In both cases, the iohexyl to SBE-βCD molar ratio was 1:0.1 during the concurrent dose. […] Renal pathology was assessed by evaluating H&E sections of the kidney under a light microscope.
Paraffin sections of […] were cut and stained with H&E and periodic acid Schiff (PAS). They were examined by light microscopy and scored in a blinded fashion. At 40× magnification, five arbitrary fields in each section was assessed for the below mentioned parameters and scored blindly according to the criteria mentioned. A total of 4 sections were analyzed per kidney.

kidney [4] = assay: Acyclovir induced nephrotoxicity in mildly renal compromised mice; conditions: acyclovir 10 or 30 mg/kg IV, 10 consecutive days, alone
Experimental: These doses however, produce nephrotoxicity in humans. Therefore, the nephroprotective effects of sulfobutylether β cyclodextrin (SBEβCD) in mildly renal compromised mice was evaluated. […] In order to produce mildly renal compromised mice, animals were injected with L-NAME (L arginine methyl ester) 10 mg/kg and Indomethacin 10 mg/kg, ip., 15-20 min before the first injection of acyclovir. Female C57BL/6 mice were administered bolus intravenous injections for ten consecutive days with a dose of 10 mg/kg acyclovir (N=3) or acyclovir 10 mg/kg+SBEβCD 173 mg/kg (N=3), or 30 mg/kg acyclovir (N=3) or acyclovir 30 mg/kg+SBEβCD 520 mg/kg (N=3) (Table 6). In both cases the acyclovir to SBEβCD molar ratio was 1:2. Animals were sacrificed after 48 hrs after the last injection. Renal pathology was assessed by evaluating H&E sections of the kidney under a light microscope. Paraffin sections of […] were cut and stained with H&E and periodic acid Schiff (PAS). They were examined by light microscopy and scored in a blinded fashion. Five arbitratary fields at 40× magnification in each sections was assessed according to the below mentioned parameters and scored according to the criteria mentioned.

Q: How did the renal histology (kidney [1]) turn out when `COc1cccc2c1C(=O)c1c(O)c3c(c(O)c1C2=O)C[C@@](O)(C(=O)CO)C[C@@H]3O[C@H]1C[C@H](N)[C@H](O)[C@H](C)O1` [doxorubicin] was run?
A: tubular casts, abundant dilated tubules and moderate loss of brush border in the some proximal tubules

Q: With gentamicin as the compound, how does the renal histology (kidney [2]; healthy mice, gentamicin 4 mg/kg intravenously) read?
A: no noticeable changes in the tubular cells in the healthy kidney

Q: And the renal histology (kidney [2]; mild renal compromised mice (L-NAME + Indomethacin), gentamicin 4 mg/kg iv)?
A: extensive tubular vacuolization and necrosis in the renal cortex

Q: For `CC(=O)N(CC(O)CO)c1c(I)c(C(=O)NCC(O)CO)c(I)c(C(=O)NCC(O)CO)c1I` (centres unmarked) [Iohexyl, iohexyl], which renal histology (kidney [3]) is on record?
A: moderate to severe signs of tubulopathy

Q: For `Nc1nc2c(ncn2COCCO)c(=O)[nH]1` [Acyclovir, acyclovir], which renal histology (kidney [4]) is on record?
A: moderate to severe signs of tubulopathy
